Experimental data published in PubChem BioAssay (NCI).
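A five-concentration, 48-hour dose response in 96-well plates underlies each endpoint, interpolated linearly between surrounding concentrations. GI50: concentration for 50% inhibition of growth. TGI is the concentration that stops growth completely.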

Experiments:
Experiment in all cases: growth of human tumour cells (NCI), 48 h
A498 renal = test system: A498 renal
HOP-62 NSCLC = test system: HOP-62 NSCLC
HT29 colon = test system: HT29 colon
NCI-H522 lung = test system: NCI-H522 lung
OVCAR-5 ovarian = test system: OVCAR-5 ovarian
OVCAR-8 ovarian = test system: OVCAR-8 ovarian
SK-MEL-2 melanoma = test system: SK-MEL-2 melanoma
SNB-19 CNS = test system: SNB-19 CNS
SNB-75 CNS = test system: SNB-75 CNS
TK-10 renal = test system: TK-10 renal

| Compound | GI50 (A498 renal) [µM] | TGI (A498 renal) [µM] | GI50 (HOP-62 NSCLC) [µM] | TGI (HOP-62 NSCLC) [µM] | GI50 (HT29 colon) [µM] | TGI (HT29 colon) [µM] | GI50 (NCI-H522 lung) [µM] | TGI (NCI-H522 lung) [µM] | GI50 (OVCAR-5 ovarian) [µM] | TGI (OVCAR-5 ovarian) [µM] | GI50 (OVCAR-8 ovarian) [µM] | TGI (OVCAR-8 ovarian) [µM] | GI50 (SK-MEL-2 melanoma) [µM] | TGI (SK-MEL-2 melanoma) [µM] | GI50 (SNB-19 CNS) [µM] | TGI (SNB-19 CNS) [µM] | GI50 (SNB-75 CNS) [µM] | TGI (SNB-75 CNS) [µM] | GI50 (TK-10 renal) [µM] | TGI (TK-10 renal) [µM] |
| --- | --- | --- | --- | --- | --- | --- | --- | --- | --- | --- | --- | --- | --- | --- | --- | --- | --- | --- | --- | --- |
| O=C1Cc2cc(CCn3ccnc3)c(Cl)cc2N1 | 2.19 | 61.1 | 33.2 | > 100 | > 100 | > 100 | 4.74 | 47.9 | 44.8 | > 100 | 24.1 | > 100 | 5.78 | 73.6 | 22.1 | > 100 | 21.6 | > 100 | > 100 | > 100 |
| O=S(=O)(NCCNc1nccc(-c2c(-c3cccc(O)c3)nc3sccn23)n1)c1ccc(F)cc1 | 7.58 | 25.2 | 13.8 | 56.5 | 2.66 | 32.4 | 6.44 | 27.1 | 17.8 | 64.6 | 4.61 | 39.3 | 4.49 | 20.2 | 16.5 | 75.3 | 1.2 | 34.9 | 11.9 | 42.1 |
| CCCNc1nc(N(C)O)nc(N(C)O)n1 | 9.51 | > 62.6 | 1.82 | 97.6 | 4.53 | > 100 | 1.11 | 7.3 | 6.09 | > 100 | 2.45 | > 100 | 2.59 | 7.76 | 4.07 | > 100 | 16.4 | > 75.3 | 1.44 | > 100 |
| CCOc1ccc(Cc2nccc3cc(OCC)c(OCC)cc23)cc1OCC | 0.763 | 19.9 | 3.01 | 20.9 | 0.863 | 12.6 | 2.09 | 15 | 4.58 | 22 | 5.33 | 31.1 | 11.7 | 26.1 | 10.7 | 31.8 | 13.4 | 41.9 | 11 | 32.5 |
| O=[N+]([O-])c1cccc(C2SCc3nc4ccccc4n32)c1 (stereo not drawn) |  | > 100 |  | > 100 |  | > 100 |  |  |  | > 100 |  | > 100 |  | > 100 |  | > 100 |  |  |  | > 100 |
| C/C=C/C=N/N(c1nnc(-c2ccccc2)c(-c2ccccc2)n1)S(=O)(=O)c1ccc(C)cc1 |  | 27.6 |  |  |  | 24.1 |  | 19.4 |  | 33.5 |  | 20.7 |  | 24.1 |  |  |  | 19.9 |  | 28.2 |
| O=C(c1cc(=O)c2ccc(O)cc2o1)c1ccc(Cl)cc1Cl |  | > 100 |  | > 100 |  | > 100 |  | > 59 |  | > 100 |  | > 100 |  | > 100 |  | > 100 |  | > 100 |  | > 100 |
| CCCOc1ccc(/C(Cl)=C(\C=O)c2ccc(OC)c(OC)c2)cc1OCCC |  | 38.5 |  | > 100 |  | 18.5 |  | 6.12 |  | > 100 |  | > 100 |  | 32 |  | > 100 |  | 75.3 |  | 94.3 |
| COc1cc2c(cc1OC)C(CCc1ccc(Cl)cc1)N(C)CC2 (stereo not drawn) |  |  | 32.9 | > 100 | 14.2 | 86 | 20 | 38.6 | 19.6 | 61.7 | 32.6 | > 100 | 19.7 | 37.1 | 37.1 | > 100 | 11.9 | 43.5 | 17 | 42.2 |
| COc1cc2c(cc1OCCCCNC(=O)c1cc3ccccc3[nH]1)N=CC1CCCN1C2=O (stereo not drawn) | 22.2 | 44.4 | 31.5 | > 100 | 32.6 | > 100 | 4.43 | 79.9 | 22.9 | > 100 | 16.7 | 78.9 |  |  | 20.2 | > 100 | 33.9 | > 100 | 14.7 | 33.6 |
| O=C(CC(=O)N1N=C(n2ccc3ccccc32)CC1c1ccccc1)Nc1cccc(Cl)c1 (stereo not drawn) |  | > 100 |  | > 100 |  | > 100 |  | > 100 |  | > 100 |  | > 100 |  | > 100 |  | > 100 |  | > 100 |  | > 100 |
| O=C1CCCCC/C=C2/CC[C@H](Sc3ccccc3)[C@@H]12 |  |  |  | > 100 |  | > 100 |  |  |  |  |  | > 100 |  | > 100 |  | > 100 |  | > 100 |  | > 100 |
| CC(C)c1cc(C(C)C)c(S(=O)(=O)NN)c(C(C)C)c1 |  | > 100 |  | > 100 |  | > 100 |  |  |  | > 100 |  | > 100 |  | > 100 |  | > 100 |  | > 100 |  | > 100 |
| C=C1CC[C@@H]2C(C)(C)[C@@H](O)CC[C@@]2(C)[C@@H]1COc1ccc2ccc(=O)oc2c1 |  |  | 15.2 | 35.6 | 8.61 | 32.6 | 13.1 | 36.1 | 18.7 | 39.9 |  | 78.7 | 15.5 | 32.8 | 14.1 | 34.2 | 10.9 | 32.1 | 15.3 | 43.4 |
| COc1ccc(/C=C2/C(=O)N(C(=O)c3ccccc3O)N=C2C)cc1OC |  |  |  | > 20.8 |  | > 100 |  | > 100 |  | > 100 |  | > 100 |  | > 30.9 |  |  |  |  |  | > 100 |
| CCc1cccc(C(C)CC)c1N=C(NC(=O)c1ccccc1C(=O)NC(=Nc1c(CC)cccc1C(C)CC)SC)SC (stereo not drawn) |  |  |  | > 100 |  | > 100 |  | 64.4 |  | > 100 |  | > 100 |  | > 100 |  | > 100 |  |  |  | 79 |
| Fc1ccc(-c2nc(-c3nc4ccc(Cl)cc4[nH]3)cc3c2[nH]c2ccccc23)cc1 | 2.01 | 9.71 | 3.87 | 16.5 | 4.31 | 12.8 | 2.74 | 12.9 | 6.13 | 22.1 | 2.88 | 10.7 | 2.76 | 7.54 | 4.27 | > 100 |  |  | 3.35 | 9.86 |
